According to US20220220128A1, “HETEROCYCLIC COMPOUNDS AS KINASE INHIBITORS, COMPOSITIONS COMPRISING THE HETEROCYCLIC COMPOUND, AND METHODS OF USE THEREOF” (JS Innopharm (Shanghai) Ltd, priority 2019, published 2022):

Columns and labels:
BAF3-KIF5B-RET cells = molecular target: T1, BAF3-KIF5B-RET cells (Homo sapiens, UniProt P07949); assay: BAF3-KIF5B-RET Cell proliferation assay (CellTiter-Glo, 72 hours); format: cell-based; conditions: growth inhibition, read-out: BA/F3-KIF5B-RET Cellular activity
T1 construct: fused on or other part: P33176 (Kinesin-1 heavy chain)
T1 sequence (P07949 whole entry, change not shown, the tested form may be a part): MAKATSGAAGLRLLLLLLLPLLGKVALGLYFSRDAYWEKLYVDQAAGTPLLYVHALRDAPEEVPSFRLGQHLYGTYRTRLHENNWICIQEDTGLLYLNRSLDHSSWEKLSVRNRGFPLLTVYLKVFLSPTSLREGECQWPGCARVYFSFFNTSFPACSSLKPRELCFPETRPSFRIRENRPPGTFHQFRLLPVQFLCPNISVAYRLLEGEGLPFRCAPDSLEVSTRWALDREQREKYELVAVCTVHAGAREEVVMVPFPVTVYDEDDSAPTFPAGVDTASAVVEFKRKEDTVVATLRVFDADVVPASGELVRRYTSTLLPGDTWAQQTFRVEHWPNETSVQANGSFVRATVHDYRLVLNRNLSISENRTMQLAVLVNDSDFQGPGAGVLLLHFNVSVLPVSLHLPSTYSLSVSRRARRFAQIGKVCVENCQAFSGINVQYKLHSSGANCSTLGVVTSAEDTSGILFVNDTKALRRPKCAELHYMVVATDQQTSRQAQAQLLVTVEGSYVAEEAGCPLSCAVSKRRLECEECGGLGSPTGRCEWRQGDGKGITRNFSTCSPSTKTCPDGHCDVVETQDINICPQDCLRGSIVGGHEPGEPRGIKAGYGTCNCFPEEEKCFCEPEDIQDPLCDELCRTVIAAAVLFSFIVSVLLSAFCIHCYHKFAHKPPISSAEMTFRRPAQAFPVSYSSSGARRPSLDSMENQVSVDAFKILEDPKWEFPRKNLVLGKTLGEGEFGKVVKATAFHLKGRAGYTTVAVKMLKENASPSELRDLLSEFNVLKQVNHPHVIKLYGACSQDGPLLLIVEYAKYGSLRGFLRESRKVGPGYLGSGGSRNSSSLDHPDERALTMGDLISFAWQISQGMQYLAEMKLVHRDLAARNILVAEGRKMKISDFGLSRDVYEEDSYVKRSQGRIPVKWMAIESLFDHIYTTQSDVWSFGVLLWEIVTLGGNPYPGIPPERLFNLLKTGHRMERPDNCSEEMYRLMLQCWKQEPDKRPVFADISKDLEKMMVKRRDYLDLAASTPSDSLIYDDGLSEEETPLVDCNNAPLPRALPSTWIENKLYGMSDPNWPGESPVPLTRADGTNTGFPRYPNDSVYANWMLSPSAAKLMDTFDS
Procedure: Compounds disclosed herein were tested for the inhibition of RET by a cancer cell proliferation assay commonly known as CellTiter-Glo assay. In this assay, a complete media was prepared by adding 10% fetal bovine serum to RPMI-1640 medium (Life technology) for BAF3-FIF5B-RET cells. BAF3-KIF5B-RET cells were added to each of 88 wells of a 96 well plate at a seeding density of 2,000 cells/well/95 μL. The cells were allowed to attach to the plate by incubating at 37° C. for 24 hours. The compound was dissolved in DMSO (SIGMA). A solution of test compound was prepared in complete media by serial dilution to obtain the following concentrations: 20 μM, 6.67 μM, 2.22 μM, 0.74 μM, 0.25 μM, 0.082 μM, 0.027 μM, 0.0091 μM and 0.0030 μM. The test compound solution (5 μL) was added to each of 80 cell-containing wells. The final concentrations of the compound were following: 1 μM, 0.33 μM, 0.11 μM, 0.037 μM, 0.012 μM, 0.0041 μM, 0.0014 μM, 0.00046 μM and 0.00015 μM. The final concentration of DMSO is 0.1%. To the 8 remaining cell-containing wells, only complete media (containing 0.1% DMSO) was added to form a control group in order to measure maximal proliferation. To the remaining 8 empty wells, complete media was added to for a vehicle control group in order to measure background. The plates were incubated at 37° C. for 72 hours. 50 μl of CellTiter-Glo® Reagent was added to each well. Mix contents for 2 minutes on an orbital shaker to induce cell lysis. Incubate at room temperature for 10 minutes to stabilize luminescent signal. Record luminescence on Paradigm. Cell viability (CV %) was calculated relative to vehicle (DMSO) treated control wells. The IC50 was calculated using GraphPad Prism.

human RET kinase = molecular target: T2, human RET kinase (Homo sapiens, UniProt P07949); assay: RET Kinase Assay (LanthaScreen TR-FRET enzymatic assay); format: biochemical; conditions: 7 nM RET, 23 μM ATP
T2 construct: purchased Carna 08-159
T2 sequence (P07949 29-1114): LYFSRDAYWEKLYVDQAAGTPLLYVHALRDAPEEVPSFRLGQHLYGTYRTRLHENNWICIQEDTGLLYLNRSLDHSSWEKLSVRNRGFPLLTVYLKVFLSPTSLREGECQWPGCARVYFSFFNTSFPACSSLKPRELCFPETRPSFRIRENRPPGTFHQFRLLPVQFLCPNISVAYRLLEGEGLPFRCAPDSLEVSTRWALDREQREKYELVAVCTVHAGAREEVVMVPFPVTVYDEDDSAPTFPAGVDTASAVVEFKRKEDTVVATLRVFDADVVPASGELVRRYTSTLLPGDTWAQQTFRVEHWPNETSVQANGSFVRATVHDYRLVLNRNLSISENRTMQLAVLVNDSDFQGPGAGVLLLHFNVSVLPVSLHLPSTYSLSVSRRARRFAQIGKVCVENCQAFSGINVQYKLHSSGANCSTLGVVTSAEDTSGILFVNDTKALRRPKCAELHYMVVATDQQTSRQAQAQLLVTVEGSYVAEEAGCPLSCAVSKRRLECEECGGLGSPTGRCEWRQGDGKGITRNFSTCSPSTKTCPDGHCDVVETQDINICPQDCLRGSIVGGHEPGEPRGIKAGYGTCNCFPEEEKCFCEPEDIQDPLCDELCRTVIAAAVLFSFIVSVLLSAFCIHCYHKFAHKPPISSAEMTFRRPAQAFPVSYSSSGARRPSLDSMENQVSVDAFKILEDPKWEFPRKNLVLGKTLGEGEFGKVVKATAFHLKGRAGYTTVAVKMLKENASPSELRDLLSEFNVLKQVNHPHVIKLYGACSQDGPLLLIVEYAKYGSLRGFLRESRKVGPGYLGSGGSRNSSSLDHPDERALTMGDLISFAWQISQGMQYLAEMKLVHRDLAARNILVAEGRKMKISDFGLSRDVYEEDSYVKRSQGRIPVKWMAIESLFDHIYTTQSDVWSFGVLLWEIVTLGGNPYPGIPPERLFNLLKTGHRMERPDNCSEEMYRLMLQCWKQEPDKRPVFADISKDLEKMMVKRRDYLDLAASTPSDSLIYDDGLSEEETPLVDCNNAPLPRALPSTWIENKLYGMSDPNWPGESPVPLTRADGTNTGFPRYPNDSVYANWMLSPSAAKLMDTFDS
Outline: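 TR-FRET enzymatic read-out using 23 μM ATP, 3 μM FAM-P2 substrate and 7 nM human RET, after 15-min compound pretreatment at room temperature and a 1 h reaction at 28° C in HEPES pH 7.5 buffer. Percent of DMSO control fitted to nonlinear sigmoid curves for IC50.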

Row | SMILES | GI50 (BAF3-KIF5B-RET cells) | IC50 (human RET kinase)
1 | Cn1cc(-c2cc(-c3cnc(N4C5CC6CC4CC(O)(C6)C5)cn3)c3c(C#N)cnn3c2)cn1 [Example 104, 4-(5-((1R,3S,5s,7s)-5-hydroxy-2-azaadamantan-2-yl)pyrazin-2-yl)-6-(1-methyl-1H-pyrazol-4-yl)pyrazolo[1,5-a]pyridine-3-carbonitrile] | 0.01 to 0.05 µM | ≤ 0.01 µM
2 | COc1ccc(NC(=O)C23CC4CC(C2)N(c2ccc(-c5cc(-c6cnn(C)c6)cn6ncc(C#N)c56)cn2)C(C4)C3)cn1 [Example 189, (1R,3S,5s,7s)-2-(5-(3-cyano-6-(1-methyl-1H-pyrazol-4-yl)pyrazolo[1,5-a]pyridin-4-yl)pyridin-2-yl)-N-(6-methoxypyridin-3-yl)-2-azaadamantane-5-carboxamide] | ≤ 0.01 µM | ≤ 0.01 µM
3 | COc1ccc(CN2[C@@H]3CC[C@H]2[C@H]2CN(c4ccc(-c5cc(OCC(C)(C)O)cn6ncc(C#N)c56)cn4)C[C@H]23)cn1 [Example 117, 6-(2-hydroxy-2-methylpropoxy)-4-(6-((3aR,4S,7R,7aS)-8-((6-methoxypyridin-3-yl)methyl)hexahydro-1H-4,7-epiminoisoindol-2(3H)-yl)pyridin-3-yl)pyrazolo[1,5-a]pyridine-3-carbonitrile] | > 0.1 µM | 0.01 to 0.05 µM
4 | COc1ccc(NC(=O)C23CC4CC(C2)N(c2ccc(-c5cc(OCC(C)(C)O)cn6ncc(C#N)c56)cn2)C(C4)C3)cn1 [Example 133, (1R,3S,5s,7s)-2-(5-(3-cyano-6-(2-hydroxy-2-methylpropoxy)pyrazolo[1,5-a]pyridin-4-yl)pyridin-2-yl)-N-(6-methoxypyridin-3-yl)-2-azaadamantane-5-carboxamide] | 0.01 to 0.05 µM | ≤ 0.01 µM
5 | CC(C)(O)COc1cc(-c2ccc(N3C[C@@H]4[C@@H](CNC(=O)c5c(F)cccc5Cl)[C@@H]4C3)nc2)c2c(C#N)cnn2c1 [Example 125, 2-chloro-N-(((1R,5S,6s)-3-(5-(3-cyano-6-(2-hydroxy-2-methylpropoxy)pyrazolo[1,5-a]pyridin-4-yl)pyridin-2-yl)-3-azabicyclo[3.1.0]hexan-6-yl)methyl)-6-fluorobenzamide] | ≤ 0.01 µM | ≤ 0.01 µM
6 | COc1ccc(C(=O)N[C@@H]2C[C@@H]3CN(c4ccc(-c5cc(OCC(C)(C)O)cn6ncc(C#N)c56)cn4)C[C@@H]3C2)cn1 [Example 159, N-((3aR,5r,6aS)-2-(5-(3-cyano-6-(2-hydroxy-2-methylpropoxy)pyrazolo[1,5-a]pyridin-4-yl)pyridin-2-yl)octahydrocyclopenta[c]pyrrol-5-yl)-6-methoxynicotinamide] | 0.01 to 0.05 µM | 0.01 to 0.05 µM
7 | CCOc1cc(-c2ccc(N3C4CC5CC3CC(NC(=O)c3ccc(OC)nc3)(C5)C4)nc2)c2c(C#N)cnn2c1 [Example 139, N-((1R,3S,5s,7s)-2-(5-(3-cyano-6-ethoxypyrazolo[1,5-a]pyridin-4-yl)pyridin-2-yl)-2-azaadamantan-5-yl)-6-methoxynicotinamide] | 0.05 to 0.1 µM | ≤ 0.01 µM
8 | COc1ccc(C(=O)NC[C@@H]2[C@H]3CN(c4cnc(-c5cc(OCC(C)(C)O)cn6ncc(C#N)c56)cn4)C[C@@H]23)cn1 [Example 155, N-(((1R,5S,6s)-3-(5-(3-cyano-6-(2-hydroxy-2-methylpropoxy)pyrazolo[1,5-a]pyridin-4-yl)pyrazin-2-yl)-3-azabicyclo[3.1.0]hexan-6-yl)methyl)-6-methoxynicotinamide] | > 0.1 µM | 0.05 to 0.1 µM
9 | CCOc1cc(-c2cnc(N3C4CC5CC3CC(C(=O)Nc3ccc(OC)nc3)(C5)C4)cn2)c2c(C#N)cnn2c1 [Example 170, (1R,3S,5s,7s)-2-(5-(3-cyano-6-ethoxypyrazolo[1,5-a]pyridin-4-yl)pyrazin-2-yl)-N-(6-methoxypyridin-3-yl)-2-azaadamantane-5-carboxamide] | 0.01 to 0.05 µM | ≤ 0.01 µM
10 | COc1ccc(CN2C[C@@H]3CN(c4cnc(-c5cc(OCC(C)(C)O)cn6ncc(C#N)c56)cn4)C[C@@H]3C2)cn1 [Example 120, 6-(2-hydroxy-2-methylpropoxy)-4-(5-((3aR,6aS)-5-((6-methoxypyridin-3-yl)methyl)hexahydropyrrolo[3,4-c]pyrrol-2(1H)-yl)pyrazin-2-yl)pyrazolo[1,5-a]pyridine-3-carbonitrile] | 0.01 to 0.05 µM | ≤ 0.01 µM
11 | CCOc1cc(-c2cnc(N3C4CC5CC3CC(NC(=O)c3ncccc3Cl)(C5)C4)cn2)c2c(C#N)cnn2c1 [Example 169, 3-chloro-N-((1R,3S,5s,7s)-2-(5-(3-cyano-6-ethoxypyrazolo[1,5-a]pyridin-4-yl)pyrazin-2-yl)-2-azaadamantan-5-yl)picolinamide] | ≤ 0.01 µM | ≤ 0.01 µM

Now from value to compound:

Row | GI50 (BAF3-KIF5B-RET cells) | IC50 (human RET kinase) | SMILES
12 | ≤ 0.01 µM | ≤ 0.01 µM | COc1ccc(C(=O)N[C@]2(C)C[C@H]3CN(c4cnc(-c5cc(-c6cnn(C)c6)cn6ncc(C#N)c56)cn4)C[C@H]3C2)cn1 [Example 145, N-((3aR,5s,6aS)-2-(5-(3-cyano-6-(1-methyl-1H-pyrazol-4-yl)pyrazolo[1,5-a]pyridin-4-yl)pyrazin-2-yl)-5-methyloctahydrocyclopenta[c]pyrrol-5-yl)-6-methoxynicotinamide]
13 | ≤ 0.01 µM | ≤ 0.01 µM | COc1ccc(NC(=O)[C@]2(C)C[C@H]3CN(c4ccc(-c5cc(-c6ccn(C)n6)cn6ncc(C#N)c56)cn4)C[C@H]3C2)cn1 [Example 113, (3aR,5s,6aS)-2-(5-(3-cyano-6-(1-methyl-1H-pyrazol-3-yl)pyrazolo[1,5-a]pyridin-4-yl)pyridin-2-yl)-N-(6-methoxypyridin-3-yl)-5-methyloctahydrocyclopenta[c]pyrrole-5-carboxamide]
14 | > 0.1 µM | 0.01 to 0.05 µM | COc1ccc(C(=O)N[C@@]2(C)C[C@H]3CN(c4ccc(-c5cc(OCC(C)(C)O)cn6ncc(C#N)c56)cn4)C[C@H]3C2)cn1 [Example 172, N-((3aR,5r,6aS)-2-(5-(3-cyano-6-(2-hydroxy-2-methylpropoxy)pyrazolo[1,5-a]pyridin-4-yl)pyridin-2-yl)-5-methyloctahydrocyclopenta[c]pyrrol-5-yl)-6-methoxynicotinamide]
15 | ≤ 0.01 µM | ≤ 0.01 µM | COc1cncc(C(=O)N[C@]2(C)C[C@H]3CN(c4cnc(-c5cc(-c6cnn(C)c6)cn6ncc(C#N)c56)cn4)C[C@H]3C2)c1 [Example 148, N-((3aR,5s,6aS)-2-(5-(3-cyano-6-(1-methyl-1H-pyrazol-4-yl)pyrazolo[1,5-a]pyridin-4-yl)pyrazin-2-yl)-5-methyloctahydrocyclopenta[c]pyrrol-5-yl)-5-methoxynicotinamide]
16 | ≤ 0.01 µM | ≤ 0.01 µM | COc1ccnc(C(=O)N[C@]2(C)C[C@H]3CN(c4cnc(-c5cc(-c6cnn(C)c6)cn6ncc(C#N)c56)cn4)C[C@H]3C2)c1 [Example 149, N-((3aR,5s,6aS)-2-(5-(3-cyano-6-(1-methyl-1H-pyrazol-4-yl)pyrazolo[1,5-a]pyridin-4-yl)pyrazin-2-yl)-5-methyloctahydrocyclopenta[c]pyrrol-5-yl)-4-methoxypicolinamide]
17 | 0.01 to 0.05 µM | ≤ 0.01 µM | CC(C)(O)COc1cc(-c2ccc(N3C[C@@H]4C[C@](C)(NC(=O)c5ncccc5Cl)C[C@@H]4C3)nc2)c2c(C#N)cnn2c1 [Example 115, 3-chloro-N-((3aR,5r,6aS)-2-(5-(3-cyano-6-(2-hydroxy-2-methylpropoxy)pyrazolo[1,5-a]pyridin-4-yl)pyridin-2-yl)-5-methyloctahydrocyclopenta[c]pyrrol-5-yl)picolinamide]
18 | 0.01 to 0.05 µM | ≤ 0.01 µM | Cn1cc(-c2cc(-c3cnc(N4C[C@@H]5C[C@@](C)(NC(=O)c6ccnc(C(F)(F)F)c6)C[C@@H]5C4)cn3)c3c(C#N)cnn3c2)cn1 [Example 147, N-((3aR,5s,6aS)-2-(5-(3-cyano-6-(1-methyl-1H-pyrazol-4-yl)pyrazolo[1,5-a]pyridin-4-yl)pyrazin-2-yl)-5-methyloctahydrocyclopenta[c]pyrrol-5-yl)-2-(trifluoromethyl)isonicotinamide]
19 | 0.01 to 0.05 µM | ≤ 0.01 µM | Cn1ccc(-c2cc(-c3ccc(N4C[C@@H]5C[C@@](O)(Cc6ccccn6)C[C@@H]5C4)nc3)c3c(C#N)cnn3c2)n1 [Example 105, 4-(6-((3aR,5r,6aS)-5-hydroxy-5-(pyridin-2-ylmethyl)hexahydrocyclopenta[c]pyrrol-2(1H)-yl)pyridin-3-yl)-6-(1-methyl-1H-pyrazol-3-yl)pyrazolo[1,5-a]pyridine-3-carbonitrile]
